Experimental data taken from patent publication US20220280526A1, “AGENT FOR THE TREATMENT OF PSORIASIS” (EBERHARD KARLS UNIVERSITAET TUEBINGEN MEDIZINISCHE FAKULTAET, priority 2019, published 2022).
Entries after “also recorded” stand apart in the source; their conditions may differ.

Columns and labels:
[1] = test system: STAT3, EZH2, CDK4 and CDK6 binding to the NFKBIZ promoter region; experiment: Chromatin immunoprecipitation at the NFKBIZ promoter in IL-36α-stimulated HaCaT cells; type: cell-based; settings: 30 min IL-36α
STAT3 lysine methylation = experiment: Detection of methylated STAT3 by immunoprecipitation in HEK293T cells; type: cell-based; settings: STAT3- and EZH2-overexpressing HEK293T cells, 1 h treatment
Method: HEK293T cells were transfected using HBS buffer and CaCl2. HaCaT cells were transfected with Lipofectamine 3000, according to the manufacturer's instructions (Thermo Fisher). 5 μg expression constructs were incubated with 3*10^5 cells for 4 h. 36-48 h post transfection, cells were harvested and analysed.
Western blot analysis was performed as described before. The following antibodies were used and purchased from Cell Signaling: anti-IκBζ (9244), anti-phospho-STAT3 at Tyr705 (9145), anti-phospho-STAT3 at Ser727 (9134), anti-STAT3 (12640), anti-p65 (8242), anti-EZH2 (5246), anti-pRB (phospho-RB at Ser807/811; 8516), anti-FoxM1 (5436), anti-H3 (4499), anti-CDK4 (12790), anti-CDK6 (13331), anti-CDK9 (2316), anti-cyclin D1 (2978), anti-cyclin D2 (3741), anti-cyclin D3 (2936), anti-cJUN (9165), anti-H3K27me3 (9733), anti-GAPDH (2118), anti-H3 (9715) and anti-β-actin (3700). Anti-β-Gal (sc377257) and anti-GFP (sc9996) were obtained from Santa Cruz Biotechnology. Anti-pEZH2 at T345 (61242) anti-pEZH2 at T487 (12820) were purchased from Active Motif and anti-pan-methyl-lysine antibody was purchased from Enzo (ADI-KAP-TF121-E). For detection of mouse IκBζ, a self-made antibody raised against peptides […] (SEQ ID NO:3) and […] (SEQ ID NO:4) was applied. […]

EZH2-STAT3 interaction = experiment: Co-immunoprecipitation of EZH2 and STAT3 in HaCaT cells; type: cell-based; settings: 30 min IL-36α
Method: Cells were lysed by mechanical disruption using standard lysis buffer (50 mM Tris-HCl pH 7.5, 150 mM NaCl, 1% NP-40, lx Protease inhibitor cocktail, Roche). Subsequently, lysates were sonicated for 5 minutes at high power (Bioruptor, Diagenode), followed by pre-clearing of the lysates with protein A/G PLUS agarose beads (Santa Cruz, sc-2003) for 1 h at 4° C. Precleared lysates were incubated either with antibodies specific for CDK4 (Cell Signaling, 12790), CDK6 (Sigma, HPA002637), EZH2 (Cell Signaling, 5246), STAT3 (MA1-13042, Thermo Fisher) or β-Gal antibody (sc-19119, Santa Cruz) as an IgG control, overnight at 4° C. For endogenous IPs immune complexes were precipitated with protein A/G PLUS agarose beads and eluted by 6×SDS-PAGE sample buffer.

NFKBIZ (IκBζ) promoter = experiment: Luciferase assay of NFKBIZ promoter activity in HaCaT cells; type: cell-based; settings: IL-36α-stimulated HaCaT cells, 24 h
Method: Luciferase constructs were generated as described; Muller et al. (2018; loc. Cit.). 1*10^4 HEK293T cells were transfected for 24 h using HBS buffer and CaCl2 and a mixture of 400 ng luciferase vector and 100 ng TK-Renilla vector. For expression of other factors, the following concentrations were used: 70 ng p65, 200 ng cJUN, STAT3 or EZH2 constructs and 500 ng CDK4, CDK6 or cyclin D expression constructs (not shown). For transfection of HaCaT cells, 3*10^5 cells were transfected for 4 h using Lipofectamine 3000 and a mixture of 800 ng luciferase vector, 200 ng TK-Renilla vector and 4 μg expression or control plasmids according to the manufacturer's instructions (Thermo Fisher). 36 h after transfection, luciferase activity was measured with the Dual Luciferase Reporter Assay Kit (Promega). Expression of the reporter constructs was calculated as the fold induction over unstimulated transfected cells from data of three independent experiments.

IκBζ expression = IκBζ expression in synchronized HaCaT cells stimulated with IL-36α; type: cell-based; settings: 1 h IL-36α
Method: Synchronization of the cells with a double thymidine block was performed as described before. After the second thymidine block, cells were released in normal medium. At 0, 4, 10 and 14 h after release, cells were stimulated with IL-36α and/or abemaciclib for 1 h. Propidium iodide staining was performed by flow cytometry (LSRII, Becton Dickson) to detect the cell cycle phase at the time point of cell harvest.
Western blot analysis was performed as described before. The following antibodies were used and purchased from Cell Signaling: anti-IκBζ (9244), anti-phospho-STAT3 at Tyr705 (9145), anti-phospho-STAT3 at Ser727 (9134), anti-STAT3 (12640), anti-p65 (8242), anti-EZH2 (5246), anti-pRB (phospho-RB at Ser807/811; 8516), anti-FoxM1 (5436), anti-H3 (4499), anti-CDK4 (12790), anti-CDK6 (13331), anti-CDK9 (2316), anti-cyclin D1 (2978), anti-cyclin D2 (3741), anti-cyclin D3 (2936), anti-cJUN (9165), anti-H3K27me3 (9733), anti-GAPDH (2118), anti-H3 (9715) and anti-β-actin (3700). Anti-β-Gal (sc377257) and anti-GFP (sc9996) were obtained from Santa Cruz Biotechnology. Anti-pEZH2 at T345 (61242) anti-pEZH2 at T487 (12820) were purchased from Active Motif and anti-pan-methyl-lysine antibody was purchased from Enzo (ADI-KAP-TF121-E). For detection of mouse IκBζ, a self-made antibody raised against peptides […] (SEQ ID NO:3) and […] (SEQ ID NO:4) was applied.

IκBζ (NFKBIZ) expression = experiment: IκBζ expression in cytokine-stimulated primary human keratinocytes (immunoblot, qPCR); type: cell-based; settings: 1 h cytokine, abemaciclib 16 μM, palbociclib 50 μM
Method: Gene expression analyses were performed as described. Relative gene expression was analyzed using self-designed primers ordered at Metabion (not shown). Relative mRNA levels were calculated by normalization to the human reference gene RPL37A or the mouse reference gene Actin using the 2-ΔΔCt method.

STAT3 = STAT3 phosphorylation in primary human keratinocytes (immunoblot); type: cell-based; settings: after stimulation with IL-36α
Description: (§1) HaCaT cells were maintained in DMEM with 10% FCS and antibiotics. Human primary keratinocytes were freshly isolated from foreskin and maintained in CnT-07S medium with gentamycin (CELLnTEC). Recombinant human IL-36α (aa 6-158) and mouse IL-36α (aa 6-160) were purchased from R&D Systems. Recombinant IL-17A (11340174), TNFα (11343013) and IL-1β (11340013) were ordered from Immunotools. Flagellin (vac-fla) and poly I:C (vac-pic) were purchased from Invivogen. In cell culture experiments, the cytokines were used at the following concentrations, as described previously: IL-36α (100 ng/mL), IL-17A (200 ng/mL), TNFα (10 ng/mL) and IL-1β (100 ng/mL). Flagellin was applied at 10 ng/mL and poly(I:C) was added at a final concentration of 100 ng/mL. […] When indicated, cells were starved for 2 h prior to cytokine treatment, by removing cell culture supplements from the growth medium.
(§2) Western blot analysis was performed as described before. […]

EZH2 = EZH2 phosphorylation in keratinocytes (immunoblot); type: cell-based, human; settings: IL-36α- or IL-17A/TNFα-treated keratinocytes
Description: as §1, §2

Abemaciclib mesylate
recruitment of STAT3/EZH2/CDK4/6 multi-protein complex to the NFKBIZ promoter region [1]: abrogated | lysine methylation of STAT3 (STAT3 lysine methylation): abrogated | interaction of EZH2 with STAT3 (EZH2-STAT3 interaction): abrogate | expression of luciferase construct harboring the NFKBIZ (IκBζ) promoter (NFKBIZ (IκBζ) promoter): abrogated | IL-36α-triggered IκBζ induction in all phases of the cell cycle (IκBζ expression): completely suppressed | IL-36α- or IL-17A/TNFα-mediated induction of IκBζ expression (IκBζ (NFKBIZ) expression): completely blocked; also recorded: abolished | phosphorylation of STAT3 at threonine 727 (T727) (STAT3): remained unaffected | phosphorylation of STAT3 at tyrosine 705 (Y705) (STAT3): completely absent | inducible phosphorylation of EZH2 at threonine 345 (T345) (EZH2): completely abrogated
